In PMC9367601 (Cancers, 2022):

Columns and labels:
[1] = target: Epidermal Growth Factor Receptor (EGFR) (Homo sapiens, UniProt P00533); test: PathHunter cell-based EGFR dimerization assay, dose-response
[2] = target: T1, Epidermal Growth Factor Receptor (EGFR), extracellular domain (EGFR-ECD) (Homo sapiens, UniProt P00533); test: SPR competition: dose-dependent decrease of EGF binding to immobilized EGFR-ECD (no SPR value printed); the IC50 is from the PathHunter cell EGFR dimerization assay; type: cell-based
T1 construct: full-length EGFR in DiscoverX PathHunter enzyme-complementation cells, EGF-stimulated
T1 sequence (P00533 25-1210): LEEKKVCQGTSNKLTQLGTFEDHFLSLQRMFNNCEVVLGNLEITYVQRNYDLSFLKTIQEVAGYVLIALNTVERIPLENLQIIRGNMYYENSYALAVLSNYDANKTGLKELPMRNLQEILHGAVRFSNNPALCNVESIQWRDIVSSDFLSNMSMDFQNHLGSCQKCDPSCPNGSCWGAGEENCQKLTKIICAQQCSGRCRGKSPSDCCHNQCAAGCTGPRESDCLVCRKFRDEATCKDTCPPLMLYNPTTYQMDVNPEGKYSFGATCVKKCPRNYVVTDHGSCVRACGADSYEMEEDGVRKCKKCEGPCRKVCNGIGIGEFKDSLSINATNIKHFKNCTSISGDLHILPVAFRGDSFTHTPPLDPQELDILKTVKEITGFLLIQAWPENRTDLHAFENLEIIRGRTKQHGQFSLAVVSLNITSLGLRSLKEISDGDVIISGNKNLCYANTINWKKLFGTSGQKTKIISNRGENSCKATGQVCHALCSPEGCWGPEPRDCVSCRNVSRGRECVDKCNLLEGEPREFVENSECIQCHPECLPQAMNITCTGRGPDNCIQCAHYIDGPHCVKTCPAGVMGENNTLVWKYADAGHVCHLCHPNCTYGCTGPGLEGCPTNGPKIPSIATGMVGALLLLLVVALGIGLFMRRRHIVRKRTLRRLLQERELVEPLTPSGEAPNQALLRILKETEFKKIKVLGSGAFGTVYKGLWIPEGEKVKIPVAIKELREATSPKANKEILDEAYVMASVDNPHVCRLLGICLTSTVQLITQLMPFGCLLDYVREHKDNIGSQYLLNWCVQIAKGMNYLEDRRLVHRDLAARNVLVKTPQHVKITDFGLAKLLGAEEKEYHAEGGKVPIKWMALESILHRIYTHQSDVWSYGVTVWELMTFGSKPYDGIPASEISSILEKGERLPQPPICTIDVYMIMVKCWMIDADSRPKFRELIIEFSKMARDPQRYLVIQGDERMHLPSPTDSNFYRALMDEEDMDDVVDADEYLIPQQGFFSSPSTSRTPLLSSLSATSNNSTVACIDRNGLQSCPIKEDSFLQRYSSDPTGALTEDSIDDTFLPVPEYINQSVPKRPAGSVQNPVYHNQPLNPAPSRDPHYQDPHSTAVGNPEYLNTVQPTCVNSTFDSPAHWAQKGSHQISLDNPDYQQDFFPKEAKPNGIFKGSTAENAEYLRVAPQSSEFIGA

[3] = target: T1, Epidermal Growth Factor Receptor (EGFR), extracellular domain (EGFR-ECD); test: cell-based; design: DiscoverX PathHunter EGFR dimerization/activation assay, chemiluminescence
Procedure: The inhibition of the EGFR dimerization assay was conducted using the PathHunter kit following the producer instructions and with cetuximab as a positive control. For IC50 determination, the selected compounds were tested at different concentration (range 0.1–100 µM) and the IC50 values were calculated by the four parameters logistic (4-PL) model. Evaluation was based on means from at least four independent experiments. The discovery of orally available small molecules able to impair the EGFR activation targeting the extracellular domain could be of great interest for cancer treatment. To pursue this goal, a suitable high/medium throughput screening method is required. In this respect, a commercially available kit (PathHunter® from DiscoverX©; San Francisco, CA, USA) for the screening of compounds able to prevent EGFR activation (either dimerization or autophosphorylation) has been developed in recent years. This assay measures the chemiluminescent signal produced as a consequence of ligand-induced dimerization/activation of EGFR [16]. Our interest in kinase inhibitors and the readily availability of such kit prompted us to start a campaign for the discovery of small molecules targeting the extracellular domain of EGFR.

Sequence of Epidermal Growth Factor Receptor (EGFR) (P00533 25-1210): as above

Structure (SMILES)	IC50 [1]	IC50 [2]	inhibition at 10 µM [3]	inhibition at 50 µM [3]
O=C1Nc2cc(Cl)c(F)cc2C1=Nc1cccc(C(F)(F)F)c1 [DSF-099]	27.7 ± 4.5 µM			
O=C1Nc2ccc([N+](=O)[O-])cc2C1=Nc1cccc(C(F)(F)F)c1 [DSF-102]		13.2 ± 2.1 µM		
O=C1Nc2ccc(Br)cc2C1=Nc1cccc(C(F)(F)F)c1 [DSF-097]	38.8 ± 3.6 µM			
CCOC(=O)c1ccc(NS(=O)(=O)c2ccc(Cl)cc2[N+](=O)[O-])cc1 [DSF087]			2 ± 3%	36 ± 4%
COCCOc1ccc2c(C)c(CCC(=O)Nc3ccc(C(=O)O)cc3)c(=O)oc2c1 [DSF048]			9 ± 3%	3 ± 4%
O=C(O)c1ccc(-c2cc(-c3cccc(C(F)(F)F)c3)ncn2)cc1 [DSF025]			6 ± 5%	34 ± 1%
c1ccc(-c2cccc(-c3cc(-c4ccccc4)ncn3)c2)cc1 [DSF027]			0%	0%
Cc1c(CC(=O)Nc2ccc(C(N)=O)cc2)c(=O)oc2c(C)c3oc4c(c3cc12)CCCC4 [DSF053]			39 ± 5%	43 ± 1%
Nc1cccc(-c2cc(-c3ccccc3)ncn2)c1 [DSF022]			0%	4 ± 4%
O=C1c2ccccc2C(=O)c2c(NCCNCCO)ccc(F)c21 [DSF016]			33 ± 5%	25 ± 3%
O=C(Nc1ccc(Nc2cc(-c3ccccc3)ncn2)cc1)Nc1ccc(C(=O)O)cc1 [DSF057]			17 ± 2%	44 ± 5%
O=C(CN1CCOCC1)Nc1ccc(NC(=O)CN2CCOCC2)c2c1C(=O)c1c(O)ccc(O)c1C2=O [DSF020]			33 ± 5%	29 ± 1%
COc1cccc(Nc2ccc3cc(-c4cccs4)c(=O)oc3n2)c1 [DSF031]			0%	19 ± 1%
COC(=O)Cc1c(C)c2ccc(O)cc2oc1=O [DSF042]			0%	0%
COc1ccc2c(C)c(CCC(=O)Nc3ccc(C(=O)O)cc3)c(=O)oc2c1C [DSF044]			0%	0%
O=C1OC(c2ccccc2)=N/C1=C/c1cnc2ccccc2c1 [DSF074]			10 ± 3%	48 ± 2%
N#CCc1c2ccccc2c(CC#N)c2ccccc12 [DSF004]			0%	1 ± 1%
COc1ccc2c(C)c(CCC(=O)Nc3ccc(C(=O)O)cc3)c(=O)oc2c1 [DSF045]			0%	0%
CC(=O)Nc1ccc(O)c2c1C(=O)c1ccccc1C2=O [DSF008]			0%	14 ± 2%
O=[N+]([O-])c1cc(Cl)ccc1S(=O)(=O)N1CCOCC1 [DSF089]			20 ± 5%	22 ± 4%
COc1cc(/C=C2/N=C(c3ccccc3)OC2=O)ccc1OC(C)=O [DSF072]			16 ± 4%	39 ± 2%
O=C1OC(c2ccccc2)=N/C1=C/c1ccc[nH]1 [DSF075]			18 ± 5%	34 ± 4%
CS(=O)(=O)Nc1ccc(NC(=O)c2ccc3c(c2)C(=O)c2c(NCCOCCN)ccc(NCCOCCN)c2C3=O)cc1 [DSF009]			8 ± 1%	48 ± 1%
Nc1cccc(-c2cc(-c3ccc(C(=O)O)cc3)ncn2)c1 [DSF023]			22 ± 1%	8 ± 2%
Cc1oc2c(C)c3oc(=O)c(CC(=O)NCc4ccccc4Cl)c(C)c3cc2c1C [DSF055]			46 ± 1%	46 ± 5%
O=C(NC(=O)c1ccccc1[N+](=O)[O-])Nc1cccc(Oc2ncc(Cl)cn2)c1 [DSF063]			0%	5 ± 5%
COc1ccc2c(C)c(CC(=O)Nc3ccc(C(=O)O)cc3)c(=O)oc2c1 [DSF043]			0%	0%
Brc1cccc(-c2cc(-c3ccccc3)ncn2)c1 [DSF028]			0%	0%
O=C(CN1CCCCC1)Nc1ccc(NC(=O)CN2CCCCC2)c2c1C(=O)c1ccccc1C2=O [DSF017]			9 ± 2%	14 ± 1%
